Assay results reported in patent US9969694B2, “N-(arylalkyl)-N′-pyrazolyl-urea, thiourea, guanidine and cyanoguanidine compounds as TrkA kinase inhibitors” (Array BioPharma Inc., priority 2012, dated 2018).

Molecular target: T1, His-tagged recombinant human TrkA (Homo sapiens, UniProt P04629)
T1 construct: 6HIS tagged cytoplasmic domain from Invitrogen, Catalog No. PV3144; purchased Invitrogen PV3144
Test: TrkA Kinase Binding Assay (LanthaScreen Eu)
Settings: averaged IC50; TR-FRET binding, 60 min, 22° C.; read-out: TrkA Enzyme IC50
Protocol: TrkA binding activity was determined in a TrkA LanthaScreen™ Eu Kinase Binding Assay. 5 nM His-tagged recombinant human TrkA (6HIS tagged cytoplasmic domain from Invitrogen, Catalog No. PV3144) was incubated with 4 nM Alexa-Fluor® Tracer 236 (Invitrogen Cat. No. PV5592), 2 nM biotinylated anti-His (Invitrogen Cat. No. PV6090), and 2 nM europium-labeled Streptavidin (Invitrogen Cat. No. PV5899), in buffer (25 mM MOPS, pH 7.5, 5 mM MgCl2, 0.005% Triton X-100). Three fold serial dilutions of compounds of the invention in DMSO were added to a final percentage of 2% DMSO. After 60-minute incubation at 22° C., the reaction was measured using the EnVision mutlimode plate reader (PerkinElmer) via TR-FRET dual wavelength detection at […]. The percent of control was calculated using a ratiometric emission factor. The IC50 values were determined by fitting a four parameter model to the percent of control data.
Table A provides averaged IC50 values for compounds of the invention when tested in the assay of Example A, where A represents an averaged IC50 value <100 nM; B represents an averaged IC50 value from 100 to 1,000 nM; and C represents an average 1050 value above 1000 nM.

T1 sequence (P04629 440-796 limits assumed): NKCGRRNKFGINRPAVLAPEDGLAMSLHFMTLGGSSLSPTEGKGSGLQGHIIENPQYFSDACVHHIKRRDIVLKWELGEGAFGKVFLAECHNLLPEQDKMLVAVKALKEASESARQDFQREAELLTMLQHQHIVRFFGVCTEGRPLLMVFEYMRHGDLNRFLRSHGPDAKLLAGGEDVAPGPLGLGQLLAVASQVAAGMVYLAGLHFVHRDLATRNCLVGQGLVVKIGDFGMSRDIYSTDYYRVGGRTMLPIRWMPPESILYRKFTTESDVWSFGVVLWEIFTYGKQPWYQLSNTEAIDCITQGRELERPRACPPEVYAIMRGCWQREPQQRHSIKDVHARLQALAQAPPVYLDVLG

Compound | IC50
COCc1ccc(OC(F)(F)F)c(CNC(=O)Nc2c(C)c(OC[C@H](O)CO)nn2-c2ccccc2)c1 [Example 65, (R)-1-(3-(2,3-dihydroxypropoxy)-4-methyl-1-phenyl-1H-pyrazol-5-yl)-3-(5-(methoxymethyl)-2-(trifluoromethoxy)benzyl)urea] | < 100 nM
COCc1ccc(OC(F)(F)F)c(CNC(=O)Nc2c(C)c(C3CCNCC3)nn2-c2ccccc2)c1 [Example 66, 1-(5-(methoxymethyl)-2-(trifluoromethoxy)benzyl)-3-(4-methyl-1-phenyl-3-(piperidin-4-yl)-1H-pyrazol-5-yl)urea] | < 100 nM
COCc1ccc(OC(F)(F)F)c(CNC(=O)Nc2c(C)c(OCC3CCNCC3)nn2-c2ccccc2)c1 [Example 67, 1-(5-(methoxymethyl)-2-(trifluoromethoxy)benzyl)-3-(4-methyl-1-phenyl-3-(piperidin-4-ylmethoxy)-1H-pyrazol-5-yl)urea] | < 100 nM
CNC(=O)c1nn(-c2ccccc2)c(NC(=O)NCc2cc(COC)ccc2OCC(F)(F)F)c1C [Example 68, 5-(3-(5-(methoxymethyl)-2-(2,2,2-trifluoroethoxy)benzyl)ureido)-N,4-dimethyl-1-phenyl-1H-pyrazole-3-carboxamide] | 100 to 1000 nM
COCc1ccc(OCC(F)(F)F)c(CNC(=O)Nc2c(C)c(-c3cnc(OC)nc3)nn2-c2ccccc2)c1 [Example 69, 1-(5-(methoxymethyl)-2-(2,2,2-trifluoroethoxy)benzyl)-3-(3-(2-methoxypyrimidin-5-yl)-4-methyl-1-phenyl-1H-pyrazol-5-yl)urea] | < 100 nM
COCc1ccc(OC(F)(F)F)c(CNC(=O)Nc2c(C)c(OCC3(F)CCNCC3)nn2-c2ccccc2)c1 [Example 70, 1-(3-((4-fluoropiperidin-4-yl)methoxy)-4-methyl-1-phenyl-1H-pyrazol-5-yl)-3-(5-(methoxymethyl)-2-(trifluoromethoxy)benzyl)urea] | < 100 nM
COCc1ccc(OC(F)(F)F)c(CNC(=O)Nc2c(C)c(OCC3CCNC3)nn2-c2ccccc2)c1 (stereo not shown) [Example 71] | < 100 nM
COCc1ccc(OC(F)(F)F)c(CNC(=O)Nc2c(C)c(OCC3CNC3)nn2-c2ccccc2)c1 [Example 72, 1-(3-(azetidin-3-ylmethoxy)-4-methyl-1-phenyl-1H-pyrazol-5-yl)-3-(5-(methoxymethyl)-2-(trifluoromethoxy)benzyl)urea] | < 100 nM
COCc1ccc(OC(F)(F)F)c(CNC(=O)Nc2c(C)c(OCC3(F)CCNC3)nn2-c2ccccc2)c1 (stereo not shown) [Example 73, 1-(3-((3-fluoropyrrolidin-3-yl)methoxy)-4-methyl-1-phenyl-1H-pyrazol-5-yl)-3-(5-(methoxymethyl)-2-(trifluoromethoxy)benzyl)urea] | < 100 nM
COCc1ccc(OC(F)(F)F)c(CNC(=O)Nc2c(C)c(-c3cc(C)c(=O)n(C)c3)nn2-c2ccccc2)c1 [Example 74, 1-(3-(1,5-dimethyl-6-oxo-1,6-dihydropyridin-3-yl)-4-methyl-1-phenyl-1H-pyrazol-5-yl)-3-(5-(methoxymethyl)-2-(trifluoromethoxy)benzyl)urea] | < 100 nM
COCc1ccc(OC(F)(F)F)c(CNC(=O)Nc2c(C)c(OCC3CN(C)C3)nn2-c2ccccc2)c1 [Example 75, 1-(5-(methoxymethyl)-2-(trifluoromethoxy)benzyl)-3-(4-methyl-3-((1-methylazetidin-3-yl)methoxy)-1-phenyl-1H-pyrazol-5-yl)urea] | < 100 nM
COCc1ccc(OC(F)(F)F)c(CNC(=O)Nc2c(C)c(OCC3(F)CCN(C)C3)nn2-c2ccccc2)c1 (stereo not shown) [Example 76, 1-(3-((3-fluoro-1-methylpyrrolidin-3-yl)methoxy)-4-methyl-1-phenyl-1H-pyrazol-5-yl)-3-(5-(methoxymethyl)-2-(trifluoromethoxy)benzyl)urea] | < 100 nM
COCc1ccc(OC(F)(F)F)c(CNC(=O)Nc2c(C)c(Oc3ccccc3)nn2-c2ccccc2)c1 [Example 77, 1-(5-(methoxymethyl)-2-(trifluoromethoxy)benzyl)-3-(4-methyl-3-phenoxy-1-phenyl-1H-pyrazol-5-yl)urea] | 100 to 1000 nM
COCc1ccc(OC(F)(F)F)c(CNC(=O)Nc2c(C)c(OC3CCNCC3)nn2-c2ccccc2)c1 [Example 78, 1-(5-(methoxymethyl)-2-(trifluoromethoxy)benzyl)-3-(4-methyl-1-phenyl-3-(piperidin-4-yloxy)-1H-pyrazol-5-yl)urea] | < 100 nM
COCc1ccc(OC(F)(F)F)c(CNC(=O)Nc2c(C)c(OC3CC4(CNC4)C3)nn2-c2ccccc2)c1 [Example 79, 1-(3-(2-azaspiro[3.3]heptan-6-yloxy)-4-methyl-1-phenyl-1H-pyrazol-5-yl)-3-(5-(methoxymethyl)-2-(trifluoromethoxy)benzyl)urea] | < 100 nM

Other lines, results leading:

IC50 | Compound
< 100 nM | COCc1ccc(OC(F)(F)F)c(CNC(=O)Nc2c(C)c(O[C@H]3CNC[C@H]3F)nn2-c2ccccc2)c1 [Example 80, 1-(3-(((3S,4R)-4-fluoropyrrolidin-3-yl)oxy)-4-methyl-1-phenyl-1H-pyrazol-5-yl)-3-(5-(methoxymethyl)-2-(trifluoromethoxy)benzyl)urea]
< 100 nM | COCc1ccc(OC(F)(F)F)c(CNC(=O)Nc2c(C)c(O[C@H]3CN(C)C[C@H]3F)nn2-c2ccccc2)c1 [Example 81, 1-(3-(((3S,4R)-4-fluoro-1-methylpyrrolidin-3-yl)oxy)-4-methyl-1-phenyl-1H-pyrazol-5-yl)-3-(5-(methoxymethyl)-2-(trifluoromethoxy)benzyl)urea]
< 100 nM | COCc1ccc(OC(F)(F)F)c(CNC(=O)Nc2c(C)c(O[C@@H]3CCN(C)C3)nn2-c2ccccc2)c1 [Example 82, (R)-1-(5-(methoxymethyl)-2-(trifluoromethoxy)benzyl)-3-(4-methyl-3-((1-methylpyrrolidin-3-yl)oxy)-1-phenyl-1H-pyrazol-5-yl)urea]
< 100 nM | COCc1ccc(OC(F)(F)F)c(CNC(=O)Nc2c(C)c(O[C@H]3CCNC3)nn2-c2ccccc2)c1 [Example 83, (S)-1-(5-(methoxymethyl)-2-(trifluoromethoxy)benzyl)-3-(4-methyl-1-phenyl-3-(pyrrolidin-3-yloxy)-1H-pyrazol-5-yl)urea]
< 100 nM | COCc1ccc(OC(F)(F)F)c(CNC(=O)Nc2c(C)c(O[C@@H]3CCNC3)nn2-c2ccccc2)c1 [Example 84, (R)-1-(5-(methoxymethyl)-2-(trifluoromethoxy)benzyl)-3-(4-methyl-1-phenyl-3-(pyrrolidin-3-yloxy)-1H-pyrazol-5-yl)urea]
< 100 nM | COCc1ccc(OC(F)(F)F)c(CNC(=O)Nc2c(C)c(OC3CC4(C3)CN(C)C4)nn2-c2ccccc2)c1 [Example 85, 1-(5-(methoxymethyl)-2-(trifluoromethoxy)benzyl)-3-(4-methyl-3-((2-methyl-2-azaspiro[3.3]heptan-6-yl)oxy)-1-phenyl-1H-pyrazol-5-yl)urea]
< 100 nM | COCc1ccc(OC(F)(F)F)c(CNC(=O)Nc2c(C)c(OCC3(F)CNC3)nn2-c2ccccc2)c1 [Example 86, 1-(3-((3-fluoroazetidin-3-yl)methoxy)-4-methyl-1-phenyl-1H-pyrazol-5-yl)-3-(5-(methoxymethyl)-2-(trifluoromethoxy)benzyl)urea]
< 100 nM | COCc1ccc(OC(F)(F)F)c(CNC(=O)Nc2c(C)c(OC[C@@H]3CCNC[C@H]3F)nn2-c2ccccc2)c1 [Example 87, 1-(3-(((3S,4S)-3-fluoropiperidin-4-yl)methoxy)-4-methyl-1-phenyl-1H-pyrazol-5-yl)-3-(5-(methoxymethyl)-2-(trifluoromethoxy)benzyl)urea]
< 100 nM | COCc1ccc(OC(F)(F)F)c(CNC(=O)Nc2c(C)c(OC[C@H]3CCNC[C@H]3F)nn2-c2ccccc2)c1 [Example 88, 1-(3-(((3S,4R)-3-fluoropiperidin-4-yl)methoxy)-4-methyl-1-phenyl-1H-1-pyrazol-5-yl)-3-(5-(methoxymethyl)-2-(trifluoromethoxy)benzyl)urea 2,2,2-trifluoroacetate]
< 100 nM | COCc1ccc(OC(F)(F)F)c(CNC(=O)Nc2c(C)c(OC3CNC3)nn2-c2ccccc2)c1 [Example 89, 1-(3-(azetidin-3-yloxy)-4-methyl-1-phenyl-1H-pyrazol-5-yl)-3-(5-(methoxymethyl)-2-(trifluoromethoxy)benzyl)urea]
< 100 nM | COCc1ccc(OC(F)(F)F)c(CNC(=O)Nc2c(C)c(OC3CC4(CCN4)C3)nn2-c2ccccc2)c1 (stereo not shown) [Example 90, 1-(3-(1-azaspiro[3.3]heptan-6-yloxy)-4-methyl-1-phenyl-1H-pyrazol-5-yl)-3-(5-(methoxymethyl)-2-(trifluoromethoxy)benzyl)urea]
< 100 nM | COCc1ccc(OC(F)(F)F)c(CNC(=O)Nc2c(C)c(OC[C@H]3CCN3)nn2-c2ccccc2)c1 [Example 91, (R)-1-(3-(azetidin-2-ylmethoxy)-4-methyl-1-phenyl-1H-pyrazol-5-yl)-3-(5-(methoxymethyl)-2-(trifluoromethoxy)benzyl)urea]
< 100 nM | COCc1ccc(OC(F)(F)F)c(CNC(=O)Nc2c(C)c(OC[C@@H]3CCN3)nn2-c2ccccc2)c1 [Example 92, (S)-1-(3-(azetidin-2-ylmethoxy)-4-methyl-1-phenyl-1H-pyrazol-5-yl)-3-(5-(methoxymethyl)-2-(trifluoromethoxy)benzyl)urea]
